Reference: patent US20250236617A1, “BICYCLIC TETRAHYDROTHIAZEPINE DERIVATIVES” (Hoffmann-La Roche Inc., priority 2022, published 2025)

Key:
[1] = system: primary human T-cells; test: IL2 secretion measurements in CD3-stimulated T-cells; format: cell-based; conditions: CD3 condition; for Emax IL2 (% activation): 24 hours, 20 μM reference compound A1 = 100%; for EC50: Homo sapiens, T-cell, IL2 secretion after 24 hours, read-out: Tcell IL2 CD3 EC50
Protocol: As readouts for T-cell activation, 1L2 secretion after 24 hours and proliferation after 5 days was measured. Increases in 1L2 secretion and proliferation upon compound treatment were assessed as the % of the maximum of reference compound A1. WO 2016/139181 discloses reference compound A1 as example 70. As a counter screen and to make sure that no unwanted TCR-independent activation was triggered, PBS conditions were run for all compounds.
Expanded primary human T-cells were thawed and cultured in RPMI 1640 (Gibco, #61870-010)+5% human serum (HS, Sigma, #H3667)+1 mM Sodium Pyruvate (Gibco, #11360-039)+50 μM 2-mercaptoethanol (Gibco, #31350-010) and 1× Pen-Strep (Life Technologies, #15140122) medium at density of 2 Mio/ml for 3 hours in 5% CO2, 37° C. and 95% humidity. For coating of plates, […] or PBS++ with CD3 antibody (concentration depending on donor and determined by CD3 titrations) was added 100 μl/well to Poly-D Lysine coated 96-well plates. Plates were sealed and incubated at room temperature for 3 hours on a table-top rocking platform. After incubation, plates were washed once with PBS−− and filled with 40 μl/well culture medium only. Compounds were then added (see next section) to medium only plates. After 3 hours of culturing the T-cells, cells were filtered through a cell strainer (Miltenyi Biotech, #130-041-407), counted again and concentration was adjusted to 1.25 Mio/ml.
Cells were then seeded 80 μl/well to the 40 μl/well including dispensed compounds according to plate layout. By adding cells, compounds were further diluted 1:3, and resulting in 100 k cells/120 μl/well. After 24 hours 40 μl of supernatant was collected carefully from the top while not disturbing the cells and transferred into a round bottom 96 well plate. Collected and frozen supernatant was used for detection of IL2 using the IL-2 Human ProQuantum Immunoassay Kit (Invitrogen) or using the Human IL-2 ELISA Kit (Thermo Fisher).
(§1) Compounds were added in a 5 or 6 pt dose response with the Tecan D300e Digital Dispenser, all conditions 3 times more concentrated than the end-concentration, since cells are added afterwards (80 μl cells to 40 μl prepared medium with treatment). The DR was starting at 20 μM or 10 μM final top concentration and a dilution factor of 3.333. The positive control was the reference compound A1 that was added in a dose response as well, additionally to 3 wells of only 20 μM representing the positive stimulator control. All wells were normalized with DMSO to a final concentration of 0.6% (0.2% end-concentration).
The immunoassay is done following the manufacturer's manual (Invitrogen, #A35603). Additional information: For the immunoassay, MicroAmp™ EnduraPlate™ Optical 384-Well plates are used. Frozen supernatant is thawed and centrifuged for 5 minutes at 1000×g, both steps at 4° C. After centrifugation, required sample amount is taken from the top, and in a separate LightCycler V-bottom plate (working plate) diluted with assay dilution buffer, dilution factor depending on the PBS or CD3 condition but at least 1:3. IL-2 standard and blanks are prepared in the same V-bottom plate, standard with a range of […] (extended version). After preparation, 5 μl of sample dilutions or standard/blanks are transferred to the optical 384-well plate (assay plate) and the 10 μl reaction protocol is being followed. For measurement, the QuantStudio 12K Flex system is used. Raw data is extracted and IL-2 concentrations are calculated with the Thermo Fisher online app (apps.thermofisher.com/apps/proquantum).
ELISA is done following the manufacturer's manual (Thermo Fisher Scientific, #88-7025-88). Additional information: For the ELISA Nunc MaxiSorp 96 well plates are used. Frozen supernatant is thawed and centrifuged for 5 minutes at 1000×g, both steps at 4° C. […]

[2] = system: primary human T-cells; test: T-cell proliferation assay (CellTiter-Glo); format: cell-based; conditions: CD3 condition; for EC50: Homo sapiens, T-cell, 120 h, proliferation after 5 days, CellTiter-Glo, read-out: Tcell Proliferation CD3 EC50; for Emax proliferation (% activation): 5 days, 20 μM reference compound A1 = 100%
Protocol: For coating of plates, PBS++ only or PBS++ with CD3 antibody (concentration depending on donor and determined by CD3 titrations) is added 100 μl/well to Poly-D Lysine coated 96-well plates. Plates are sealed and incubated at room temperature for 3 hours on a table-top rocking platform. After incubation, plates are washed once with PBS−− and filled with 40 μl/well culture medium only. Compounds are then added (see next section) to medium only plates. After 3 hours of culturing the T-cells, cells are filtered through a cell strainer (Miltenyi Biotech, #130-041-407), counted again and concentration is adjusted to 1.25 Mio/ml.
Cells are then seeded 80 μl/well to the 40 μl/well including dispensed compounds according to plate layout. By adding cells, compounds are further diluted 1:3, and resulting in 100 k cells/120 μl/well. After 48 hours 40 μl of supernatant is collected carefully from the top while not disturbing the cells. Cells are assessed for proliferation 5 days later by measuring […] using CellTiterGlo (Promega).
as §1, with “The DR was starting at 20 μM or 10 μM final top concentration and a dilution factor of 3.333.” left out
After 5 days, for detection of ATP which is directly proportional to the number of cells present per well, the CellTiter-Glo® 2.0 Reagent is used. After visual control for toxicity or precipitations of the tested compounds, the plates are equilibrated to room temperature for 45 minutes. CellTiter-Glo® 2.0 Reagent is equilibrated to room temperature as well. After equilibration, an equal amount of CellTiter-Glo reagent is added to the cells (80 μl/well) with an electronic multichannel pipette. Plates are placed on a rocking platform for 15 minutes at room temperature. After incubation, the bottom of the plates is sealed with backing tape. Luminescence is measured with PHERAstar FSX (interval time 0.5 sec, gain 3000, focal height 15 mm) and exported as CSV file for analysis in Genedata screener.
Calculations and Data Reporting CD3 and PBS plates were analysed separately in Genedata Screener using Roche Normalization PCT_POS_CTRL with DMSO set as Neutral Control and 20 μM of the reference compound A1 set as Stimulator Control/100%.
For CD3 conditions EC50 and Emax of the fitted sigmoidal curve were reported. If no curve could be fitted, the EC50 was reported as blank field and the Emax was based on individual data points. […] Compounds which activate unstimulated cells (see IL2 measurements) or compounds which negatively affected viability were flagged.

SMILES	Emax IL2 (% activation) [1]	EC50 [1]	EC50 [2]	Emax proliferation (% activation) [2]
Cc1ncc(-c2cc3c(cc2F)S(=O)(=O)C[C@H](N)C(=O)N3Cc2ccc(Cl)cc2)cc1C(C)(C)C [Example 16, (3R)-3-amino-7-(5-tert-butyl-6-methyl-3-pyridyl)-5-[(4-chlorophenyl)methyl]-8-fluoro-1,1-dioxo-2,3-dihydro-1λ6,5-benzothiazepin-4-one]	87 % activation	1110 nM	36 nM	
CC(C)(C)c1cnc(-c2cc3c(cc2F)S(=O)(=O)C[C@H](N)C(=O)N3Cc2ccc(Cl)cc2)nn1 [Example 12, (3R)-3-amino-7-(6-tert-butyl-1,2,4-triazin-3-yl)-5-[(4-chlorophenyl)methyl]-8-fluoro-1,1-dioxo-2,3-dihydro-1λ6,5-benzothiazepin-4-one]	77 % activation	2780 nM	1670 nM	
N[C@H]1CS(=O)(=O)c2cc(F)c(-c3cc(C(F)(F)F)ccn3)cc2N(Cc2ccc(Cl)cc2)C1=O [Example 8, (3R)-3-amino-5-[(4-chlorophenyl)methyl]-8-fluoro-1,1-dioxo-7-[4-(trifluoromethyl)-2-pyridyl]-2,3-dihydro-1λ6,5-benzothiazepin-4-one]	37 % activation	> 20000 nM	1310 nM	100 % activation
CC(C)(C)c1cc(-c2cc3c(cc2F)S(=O)(=O)C[C@H](N)C(=O)N3Cc2ccc(Cl)cc2)ccn1 [Example 3, (3R)-3-amino-7-(2-tert-butyl-4-pyridyl)-5-[(4-chlorophenyl)methyl]-8-fluoro-1,1-dioxo-2,3-dihydro-1λ6,5-benzothiazepin-4-one]	56 % activation	829 nM	1510 nM	
N[C@H]1CS(=O)(=O)c2cc(F)c(-c3nccc(C(F)(F)F)n3)cc2N(Cc2ccc(Cl)cc2)C1=O [Example 10, (3R)-3-amino-5-[(4-chlorophenyl)methyl]-8-fluoro-1,1-dioxo-7-[4-(trifluoromethyl)pyrimidin-2-yl]-2,3-dihydro-1λ6,5-benzothiazepin-4-one]	44 % activation	1820 nM	3570 nM	
CC(C)Oc1ccc(CN2C(=O)[C@@H](N)CS(=O)(=O)c3cc(F)c(-c4nncc(C(C)(C)C)n4)cc32)cc1 [Example 14, (3R)-3-amino-7-(5-tert-butyl-1,2,4-triazin-3-yl)-8-fluoro-5-[(4-isopropoxyphenyl)methyl]-1,1-dioxo-2,3-dihydro-1λ6,5-benzothiazepin-4-one]	73 % activation	1630 nM	254 nM	
COc1cncc(-c2cc3c(cc2F)S(=O)(=O)C[C@H](N)C(=O)N3Cc2ccc(Cl)cc2)c1 [Example 26, (3R)-3-amino-5-[(4-chlorophenyl)methyl]-8-fluoro-7-(5-methoxy-3-pyridyl)-1,1-dioxo-2,3-dihydro-1λ6,5-benzothiazepin-4-one]	29 % activation	> 10000 nM	416 nM	
CS(=O)(=O)C1(c2cnnc(-c3cc4c(cc3F)S(=O)(=O)C[C@H](N)C(=O)N4Cc3ccc(Cl)cc3)n2)CC1 [Example 19, (3R)-3-amino-5-[(4-chlorophenyl)methyl]-8-fluoro-7-[5-(1-methylsulfonylcyclopropyl)-1,2,4-triazin-3-yl]-1,1-dioxo-2,3-dihydro-1λ6,5-benzothiazepin-4-one]	45 % activation	5710 nM	2090 nM	
Cc1nnc(-c2cc3c(cc2F)S(=O)(=O)C[C@H](N)C(=O)N3Cc2ccc(Cl)cc2)nc1-c1ccccc1 [Example 13, (3R)-3-amino-5-[(4-chlorophenyl)methyl]-8-fluoro-7-(6-methyl-5-phenyl-1,2,4-triazin-3-yl)-1,1-dioxo-2,3-dihydro-1λ6,5-benzothiazepin-4-one]	48 % activation	> 10000 nM	3640 nM	
CCN(CC)c1cnnc(-c2cc3c(cc2F)S(=O)(=O)C[C@H](N)C(=O)N3Cc2ccc(Cl)cc2)n1 [Example 15, (3R)-3-amino-5-[(4-chlorophenyl)methyl]-7-[5-(diethylamino)-1,2,4-triazin-3-yl]-8-fluoro-1,1-dioxo-2,3-dihydro-1λ6,5-benzothiazepin-4-one]	79 % activation	1650 nM	1710 nM	
CC(C)Oc1cc(-c2cc3c(cc2F)S(=O)(=O)C[C@H](N)C(=O)N3Cc2ccc(Cl)cc2)cnn1 [Example 7, (3R)-3-amino-5-[(4-chlorophenyl)methyl]-8-fluoro-7-(6-isopropoxypyridazin-4-yl)-1,1-dioxo-2,3-dihydro-1λ6,5-benzothiazepin-4-one]	49 % activation	3200 nM	172 nM	
N[C@H]1CS(=O)(=O)c2cc(F)c(-c3cccc(C(F)(F)F)n3)cc2N(Cc2ccc(Cl)cc2)C1=O [Example 9, (3R)-3-amino-5-[(4-chlorophenyl)methyl]-8-fluoro-1,1-dioxo-7-[6-(trifluoromethyl)-2-pyridyl]-2,3-dihydro-1λ6,5-benzothiazepin-4-one]			6690 nM	76 % activation
N[C@H]1CS(=O)(=O)c2cc(F)c(-c3cnnc(C4(C(F)(F)F)CC4)c3)cc2N(Cc2ccc(-c3noc(C(F)(F)F)n3)cc2)C1=O [Example 37, (3R)-3-amino-8-fluoro-1,1-dioxo-7-[6-[1-(trifluoromethyl)cyclopropyl]pyridazin-4-yl]-5-[[4-[5-(trifluoromethyl)-1,2,4-oxadiazol-3-yl]phenyl]methyl]-2,3-dihydro-1λ6,5-benzothiazepin-4-one]			729 nM	147 % activation
